Read-outs that look alike come from different tables or passages of the source.
What was measured:
[1] = system: Cl. ramosum; assay: M.I.C. against anaerobic bacteria, Cl. ramosum; assay type: cell-based; details: Thomasclavelia ramosa
[2] = Mouse blood (plasma) antibiotic levels after single intramuscular dose; assay type: in vivo; details: im, 40 mg/kg, mice, 40 mg./kg. i.m.; for concentration at 0.25 h: 15 min.; for concentration at 0.5 h: 30 min.; for concentration at 1 h: 60 min.; for concentration at 1.5 h: 90 min.
Procedure: Plasma antibiotic levels from mice administered a single intramuscular dose of 40 mg./kg. of BL-[…] or carbenicillin are shown in the following table.

[3] = system: Pseudomonas aeruginosa; assay: Minimum Bactericidal Concentration, inoculum 10^5 cells/ml., at least 99.9% kill; assay type: cell-based
Text: The effect of increased inoculum size on the bactericidal activity of BL-P1908 was investigated by a second test in which an inoculum size of 10^5 cells/ml. was used and the M.B.C. was defined as the lowest concentration of antibiotics in mcg./ml. needed to kill at least 99.9% of viable Pseudomonas cells.

[4] = system: Cl. septicum; assay: M.I.C. against anaerobic bacteria, Cl. septicum; assay type: cell-based; details: Clostridium septicum; strain A21869
[5] = system: Cl. cylindrosporum; assay: M.I.C. against anaerobic bacteria, Cl. cylindrosporum; assay type: cell-based; details: strain A9562
[6] = system: Pseudomonas aeruginosa; assay: Minimum Inhibitory Concentration, agar dilution, overnight incubation at 37° C.; assay type: cell-based; details: Pseudomonas aeruginosa
Text: A carbenicillin sample was also run for comparative purposes.

[7] = system: Cl. difficile; assay: M.I.C. against anaerobic bacteria, Cl. difficile; assay type: cell-based; details: Clostridioides difficile
[8] = system: Pseudomonas aeruginosa; assay: animal or person; details: in Mus musculus, im
[9] = system: Bacteroides fragilis; assay: M.I.C. against anaerobic bacteria, Bacteroides fragilis; assay type: cell-based
[10] = system: Cl. perfringens; assay: microbe, parasite or virus in culture; assay type: cell-based; details: Clostridium perfringens
[11] = system: Pseudomonas aeruginosa; assay: Minimum Bactericidal Concentration, inoculum 10^4 cells/ml., at least 99% kill; assay type: cell-based
Procedure: The bactericidal in vitro activity of sodium D(-)-6-(α-(1,2,4-triazine-3,5-dione-6-carboxamido)-4-hydroxyphenylacetamido)penicillanate (BL-P1908) against several strains of Pseudomonas aeruginosa was determined under two sets of conditions. In one test the Minimum Bactericidal Concentrations (M.B.C.) were determined using an inoculum size of 10^4 cells/ml. and the M.B.C. was defined as the lowest concentration of antibiotic in mcg./ml. needed to kill at least 99% of the viable Pseudomonas cells.

[12] = system: Cl. acidiurici; assay: M.I.C. against anaerobic bacteria, Cl. acidiurici; assay type: cell-based; details: strain A9560
[13] = Ave. of Tests 1 and 2, read-out: Blood Level
[14] = Test 1 (Ave. of 6 mice tested), read-out: Blood Level
[15] = Test 2 (Ave. of 8 mice tested), read-out: Blood Level
[16] = read-out: PD50 /treatment, P. aeruginosa A9843A, challenge 1 × 10^4, i.m., at 0 and 2 hours
[17] = read-out: PD50 /treatment, P. aeruginosa A9843A, challenge 2 × 10^4, i.m., at 0 and 2 hours
[18] = read-out: PD50 /treatment, P. aeruginosa A9843A, challenge 3 × 10^4, i.m., at 0 and 2 hours
[19] = read-out: PD50 /treatment, P. aeruginosa A20599, challenge 3 × 10^4, i.m., at 0 and 2 hours
[20] = read-out: PD50 /treatment, P. aeruginosa A20599, challenge 6 × 10^4, i.m., at 0 and 2 hours

CC1(C)S[C@@H]2[C@H](NC(=O)[C@H](NC(=O)c3n[nH]c(=O)[nH]c3=O)c3ccc(O)cc3)C(=O)N2[C@H]1C(=O)O [BL-P1908, sodium D(-)-6-(α-(1,2,4-triazine-3,5-dione-6-carboxamido)-4-hydroxyphenylacetamido)penicillanate]
MIC ([1]; strain A21883): 0.25 µg/mL | MIC ([1]; strain A21970): 2 µg/mL | concentration at 0.25 h [2, 13]: 26700 ng/mL | concentration at 0.25 h [2, 14]: 24900 ng/mL | concentration at 0.25 h [2, 15]: 28400 ng/mL | concentration at 0.5 h [2, 13]: 17300 ng/mL | concentration at 0.5 h [2, 14]: 19400 ng/mL | concentration at 0.5 h [2, 15]: 15100 ng/mL | concentration at 1 h [2, 13]: 5300 ng/mL | concentration at 1 h [2, 14]: 7500 ng/mL | concentration at 1 h [2, 15]: 3000 ng/mL | concentration at 1.5 h [2, 13]: < 2900 ng/mL | concentration at 1.5 h [2, 14]: < 3900 ng/mL | concentration at 1.5 h [2, 15]: < 1800 ng/mL | MBC ([3]; strain 9843A): 500 µg/mL | MBC ([3]; strain 9910): 500 µg/mL | MBC ([3]; strain 9926): 250 µg/mL | MBC ([3]; strain 20126): 32 µg/mL | MBC ([3]; strain 20128): 16 µg/mL | MBC ([3]; strain 20227): 4 µg/mL | MBC ([3]; strain 20228): 250 µg/mL | MBC ([3]; strain 20546): 500 µg/mL | MBC ([3]; strain 20557): 1000 µg/mL | MBC ([3]; strain 20574): > 1000 µg/mL | MBC ([3]; strain 20602): 1000 µg/mL | MBC ([3]; strain 20616): 1000 µg/mL | MBC ([3]; strain 20641): 1000 µg/mL | MBC ([3]; strain 20717): > 1000 µg/mL | MBC ([3]; strain 20726): 1000 µg/mL | MBC ([3]; strain 21336): 1000 µg/mL | MIC [4]: 1 µg/mL | MIC [5]: 16 µg/mL | MIC ([6]; strain A9502): 2 µg/mL | MIC ([6]; strain A9827): 1 µg/mL | MIC ([6]; strain A9910): 1 µg/mL | MIC ([6]; strain A9923): 2 µg/mL | MIC ([6]; strain A9924): 2 µg/mL | MIC ([6]; strain A9925): 1 µg/mL | MIC ([6]; strain A9926): 1 µg/mL | MIC ([6]; strain A9930): 2 µg/mL | MIC ([6]; strain A9931): 1 µg/mL | MIC ([6]; strain A15150): 2 µg/mL | MIC ([6]; strain A15151): 8 µg/mL | MIC ([6]; strain A15194): 4 µg/mL | MIC ([6]; strain A15195): 2 µg/mL | MIC ([6]; strain A15196): 2 µg/mL | MIC ([6]; strain A20125): 2 µg/mL | MIC ([6]; strain A20126): 0.5 µg/mL | MIC ([6]; strain A20127): 1 µg/mL | MIC ([6]; strain A20128): 1 µg/mL | MIC ([6]; strain A20129): 1 µg/mL | MIC ([6]; strain A20130): 1 µg/mL | MIC ([6]; strain A20227): 0.5 µg/mL | MIC ([6]; strain A20228): 1 µg/mL | MIC ([6]; strain A20546): 2 µg/mL | MIC ([6]; strain A20557): 4 µg/mL | MIC ([6]; strain A20574): 0.5 µg/mL | MIC ([6]; strain A20602): 2 µg/mL | MIC ([6]; strain A20616): 1 µg/mL | MIC ([6]; strain A20641): 0.5 µg/mL | MIC ([6]; strain A20717): 4 µg/mL | MIC ([6]; strain A20726): 1 µg/mL | MIC ([6]; strain A21336): 2 µg/mL | MIC ([7]; strain A21675): 2 µg/mL | MIC ([7]; strain A21972): 4 µg/mL | ED50 [8, 16]: 4.8 mg/kg | ED50 [8, 17]: 2.5 mg/kg | ED50 [8, 18]: 11 mg/kg | ED50 [8, 19]: 5.4 mg/kg | ED50 [8, 20]: 9.6 mg/kg | MIC ([9]; strain A20920): 1 µg/mL | MIC ([9]; strain A20926): 2 µg/mL | MIC ([9]; strain A20927-1): 1 µg/mL | MIC ([9]; strain A20930): 16 µg/mL | MIC ([9]; strain A20933): 8 µg/mL | MIC ([9]; strain A20934): 4 µg/mL | MIC ([9]; strain A20935): 1 µg/mL | MIC ([9]; strain A21870): 16 µg/mL | MIC ([9]; strain A21871): 16 µg/mL | MIC ([9]; strain A21872): 16 µg/mL | MIC ([9]; strain A21875): 4 µg/mL | MIC ([9]; strain A22053): 8 µg/mL | MIC ([9]; strain A27020): 16 µg/mL | MIC ([10]; strain A21873): 0.13 µg/mL | MIC ([10]; strain A21874): 0.13 µg/mL | MIC ([10]; strain A21907): 0.13 µg/mL | MBC ([11]; strain 9843A): 63 µg/mL | MBC ([11]; strain 9910): 1 µg/mL | MBC ([11]; strain 9926): 2 µg/mL | MBC ([11]; strain 20126): 2 µg/mL | MBC ([11]; strain 20128): 2 µg/mL | MBC ([11]; strain 20227): 2 µg/mL | MBC ([11]; strain 20228): 8 µg/mL | MBC ([11]; strain 20546): 1 µg/mL | MBC ([11]; strain 20557): 16 µg/mL | MBC ([11]; strain 20574): 2 µg/mL | MBC ([11]; strain 20616): 2 µg/mL | MBC ([11]; strain 20641): 4 µg/mL | MBC ([11]; strain 20717): 63 µg/mL | MBC ([11]; strain 20726): 2 µg/mL | MBC ([11]; strain 21336): 2 µg/mL | MIC [12]: 1 µg/mL

CC1(C)S[C@@H]2[C@H](NC(=O)[C@H](NC(=O)c3n[nH]c(=S)[nH]c3=O)c3ccc(O)cc3)C(=O)N2[C@H]1C(=O)O [BL-P1937, sodium D(-)-6-(α-(1,2,4-triazine-3-thione-5-one-6-carboxamido)-4-hydroxyphenylacetamido)-penicillanate]
MIC ([1]; strain A21883): 0.25 µg/mL | MIC ([1]; strain A21970): 2 µg/mL | MIC [4]: 1 µg/mL | MIC [5]: 0.25 µg/mL | MIC ([7]; strain A21675): 4 µg/mL | MIC ([7]; strain A21972): 4 µg/mL | ED50 [8, 16]: 11 mg/kg | ED50 [8, 17]: 5.4 mg/kg | ED50 [8, 18]: 11 mg/kg | ED50 [8, 19]: ~13 mg/kg | ED50 [8, 20]: 22 mg/kg | MIC ([9]; strain A20920): 0.5 µg/mL | MIC ([9]; strain A20926): 2 µg/mL | MIC ([9]; strain A20927-1): 1 µg/mL | MIC ([9]; strain A20930): 16 µg/mL | MIC ([9]; strain A20933): 4 µg/mL | MIC ([9]; strain A20934): 4 µg/mL | MIC ([9]; strain A20935): 2 µg/mL | MIC ([9]; strain A21870): 1 µg/mL | MIC ([9]; strain A21871): 2 µg/mL | MIC ([9]; strain A21872): 16 µg/mL | MIC ([9]; strain A21875): 8 µg/mL | MIC ([9]; strain A22053): 2 µg/mL | MIC ([9]; strain A27020): 8 µg/mL | MIC ([10]; strain A21873): 0.063 µg/mL | MIC ([10]; strain A21874): 0.13 µg/mL | MIC ([10]; strain A21907): 0.25 µg/mL | MIC [12]: 1 µg/mL
